US20260022142A1, “MACROCYCLIC IMMUNOMODULATORS” (Bristol-Myers Squibb Company, priority 2022, published 2026)
pIC50: −log10 of the molar value. Bridge positions count the residues as written; N and C are the ends. Square brackets hold non-standard residues; d marks the D form. Peptide text beside a SMILES is read from it. * marks the point of attachment. Phe(4-COOH) = N[C@@H](Cc1ccc(C(=O)O)cc1)C(=O)O; Bip = N[C@@H](Cc1ccc(-c2ccccc2)cc1)C(=O)O; Pro(4R-NH2) = N[C@H]1CN[C@H](C(=O)O)C1; 4Pal = N[C@@H](Cc1ccncc1)C(=O)O; Cha = N[C@@H](CC1CCCCC1)C(=O)O; Cit = NC(=O)NCCC[C@H](N)C(=O)O; Carboxymethyl = O=C(O)C*; Orn = NCCC[C@H](N)C(=O)O; Aun = NCCCCCCCCCCC(=O)O; Dab = NCC[C@H](N)C(=O)O; Dap = NC[C@H](N)C(=O)O; AEEA = NCCOCCOCC(=O)O

Target: T1, PD-1/PD-L1 interaction (PE-labeled human PD-L1-Ig binding to Jurkat cell line over-expressing human PD-1) (Homo sapiens, UniProt Q15116)
T1 construct: expressed in transfected cells; host or cells: Jurkat
Experiment: Jurkat-PD-1 Cell Binding High-Content Screening Assay (CBA)
Format: cell-based
Conditions: Jurkat cell line over-expressing human PD-1; PE-labeled PD-L1-Ig 20 nM final; read-out: Jurkat hPD1-PDL1 IC50
How it was run: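 Human PD-L1-Ig carrying a covalent PE label on its Ig tag serves as the probe, applied at 20 nM final to compound-treated (2 h, 37° C) Jurkat-hPD-1 cells in medium with 10% fetal calf serum. After one hour, fixation and nuclear staining precede high-content image analysis.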

T1 sequence (Q15116 25-288): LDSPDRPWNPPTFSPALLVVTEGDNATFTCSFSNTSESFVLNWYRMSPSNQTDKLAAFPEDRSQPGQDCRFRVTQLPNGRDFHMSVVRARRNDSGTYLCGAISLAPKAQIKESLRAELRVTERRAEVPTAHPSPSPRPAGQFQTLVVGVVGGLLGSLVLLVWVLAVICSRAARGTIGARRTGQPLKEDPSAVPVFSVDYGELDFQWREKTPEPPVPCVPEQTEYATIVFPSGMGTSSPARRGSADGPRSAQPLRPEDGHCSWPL

Row | Structure (SMILES) | pIC50
1 | CC(C)C[C@H]1NC(=O)[C@H](CCCN)NC(=O)[C@H](C(C)C)NC(=O)[C@H](Cc2ccc(-c3ccccc3)cc2)NC(=O)[C@H](C(C)C)NC(=O)[C@H](Cc2c[nH]c3ccccc23)NC(=O)[C@H](CC(=O)O)NC(=O)[C@H](Cc2ccncc2)NC(=O)[C@H](Cc2ccc(OCC(=O)O)cc2)NC(=O)CSC[C@@H](C(=O)NCC(=O)NCCOCCOCC(=O)N[C@@H](CCCN)C(=O)NCCCCCCCCCCC(=O)O)NC(=O)[C@H](CN)NC(=O)[C@H](C(C)C)NC(=O)[C@H](CC2CCCCC2)NC(=O)[C@H](CCN)NC1=O [Compound 3232] ({CH2CO}-Y(Carboxymethyl)[4Pal]DWV[Bip]V[Orn][dL][Dab][Cha]V[Dap]CG[AEEA][Orn][Aun]-OH; thioether N-14) | 8.00
2 | CC(C)C[C@H]1NC(=O)[C@H](CCCN)NC(=O)[C@H](C(C)C)NC(=O)[C@H](Cc2ccc(-c3ccccc3)cc2)NC(=O)[C@H](C(C)C)NC(=O)[C@H](Cc2c[nH]c3ccccc23)NC(=O)[C@H](CC(=O)O)NC(=O)[C@H](Cc2ccc(OCC(=O)O)cc2)NC(=O)[C@H](Cc2ccncc2)NC(=O)CSC[C@@H](C(=O)NCC(=O)NCCOCCOCC(=O)N[C@@H](CCCN)C(=O)NCCCCCCCCCCC(=O)O)NC(=O)[C@H](CCN)NC(=O)[C@H](C(C)C)NC(=O)[C@H](CC2CCCCC2)NC(=O)[C@@H]2C[C@@H](N)CN2C1=O [Compound 3237] ({CH2CO}-[4Pal]Y(Carboxymethyl)DWV[Bip]V[Orn][dL][Pro(4R-NH2)][Cha]V[Dab]CG[AEEA][Orn][Aun]-OH; thioether N-14) | 6.80
3 | CC(C)C[C@H]1NC(=O)[C@H](CCCN)NC(=O)[C@H](C(C)C)NC(=O)[C@H](Cc2ccc(-c3ccccc3)cc2)NC(=O)[C@H](C(C)C)NC(=O)[C@H](Cc2c[nH]c3ccccc23)NC(=O)[C@H](CC(=O)O)NC(=O)[C@H](Cc2ccc(OCC(=O)O)cc2)NC(=O)[C@H](CCCNC(=N)N)NC(=O)CSC[C@@H](C(=O)NCC(=O)NCCOCCOCC(=O)N[C@@H](CCCN)C(=O)NCCCCCCCCCCC(=O)O)NC(=O)[C@H](CN)NC(=O)[C@H](C(C)C)NC(=O)[C@H](CC2CCCCC2)NC(=O)[C@H](CCN)NC1=O [Compound 3238] ({CH2CO}-RY(Carboxymethyl)DWV[Bip]V[Orn][dL][Dab][Cha]V[Dap]CG[AEEA][Orn][Aun]-OH; thioether N-14) | 7.93
4 | CC(C)C[C@H]1NC(=O)[C@H](CCCN)NC(=O)[C@H](C(C)C)NC(=O)[C@H](Cc2ccc(-c3ccccc3)cc2)NC(=O)[C@H](C(C)C)NC(=O)[C@H](Cc2c[nH]c3ccccc23)NC(=O)[C@H](CC(=O)O)NC(=O)[C@H](Cc2ccc(C(=O)O)cc2)NC(=O)[C@H](CCCNC(=N)N)NC(=O)CSC[C@@H](C(=O)NCC(=O)NCCOCCOCC(=O)N[C@@H](CCCN)C(=O)NCCCCCCCCCCC(=O)O)NC(=O)[C@H](CN)NC(=O)[C@H](C(C)C)NC(=O)[C@H](CC2CCCCC2)NC(=O)[C@H](CCN)NC1=O [Compound 3239] ({CH2CO}-R[Phe(4-COOH)]DWV[Bip]V[Orn][dL][Dab][Cha]V[Dap]CG[AEEA][Orn][Aun]-OH; thioether N-14) | 7.94
5 | CC(C)C[C@H]1NC(=O)[C@H](CCCN)NC(=O)[C@H](C(C)C)NC(=O)[C@H](Cc2ccc(-c3ccccc3)cc2)NC(=O)[C@H](C(C)C)NC(=O)[C@H](Cc2c[nH]c3ccccc23)NC(=O)[C@H](CC(=O)O)NC(=O)[C@H](Cc2ccc(OCC(=O)O)cc2)NC(=O)[C@H](CCCNC(=N)N)NC(=O)CSC[C@@H](C(=O)NCC(=O)NCCOCCOCC(=O)N[C@@H](CCCN)C(=O)NCCCCCCCCCCC(=O)O)NC(=O)[C@H](CCN)NC(=O)[C@H](C(C)C)NC(=O)[C@H](CC2CCCCC2)NC(=O)[C@H](CCN)NC1=O [Compound 3241] ({CH2CO}-RY(Carboxymethyl)DWV[Bip]V[Orn][dL][Dab][Cha]V[Dab]CG[AEEA][Orn][Aun]-OH; thioether N-14) | 7.93
6 | CC(C)C[C@H]1NC(=O)[C@H](CCCN)NC(=O)[C@H](C(C)C)NC(=O)[C@H](Cc2ccc(-c3ccccc3)cc2)NC(=O)[C@H](C(C)C)NC(=O)[C@H](Cc2c[nH]c3ccccc23)NC(=O)[C@H](CC(=O)O)NC(=O)[C@H](Cc2ccc(OCC(=O)O)cc2)NC(=O)[C@H](CCCNC(=N)N)NC(=O)CSC[C@@H](C(=O)NCC(=O)NCCOCCOCC(=O)N[C@@H](CCCN)C(=O)NCCCCCCCCCCC(=O)O)NC(=O)[C@H](CCN)NC(=O)[C@H](C(C)C)NC(=O)[C@H](CC2CCCCC2)NC(=O)[C@@H]2C[C@@H](N)CN2C1=O [Compound 3242] ({CH2CO}-RY(Carboxymethyl)DWV[Bip]V[Orn][dL][Pro(4R-NH2)][Cha]V[Dab]CG[AEEA][Orn][Aun]-OH; thioether N-14) | 6.16

These reach a higher pIC50. Values come first.

Row | pIC50 | Structure (SMILES)
7 | 8.14 | CC(C)C[C@H]1NC(=O)[C@H](CCCN)NC(=O)[C@H](C(C)C)NC(=O)[C@H](Cc2ccc(-c3ccccc3)cc2)NC(=O)[C@H](C(C)C)NC(=O)[C@H](Cc2c[nH]c3ccccc23)NC(=O)[C@H](CC(=O)O)NC(=O)[C@H](Cc2ccc(C(=O)O)cc2)NC(=O)[C@H](Cc2ccncc2)NC(=O)CSC[C@@H](C(=O)NCC(=O)NCCOCCOCC(=O)N[C@@H](CCCN)C(=O)NCCCCCCCCCCC(=O)O)NC(=O)[C@H](CN)NC(=O)[C@H](C(C)C)NC(=O)[C@H](CC2CCCCC2)NC(=O)[C@H](CCN)NC1=O [Compound 3234] ({CH2CO}-[4Pal][Phe(4-COOH)]DWV[Bip]V[Orn][dL][Dab][Cha]V[Dap]CG[AEEA][Orn][Aun]-OH; thioether N-14)
8 | 8.24 | CC(C)C[C@H]1NC(=O)[C@H](CCCN)NC(=O)[C@H](C(C)C)NC(=O)[C@H](Cc2ccc(-c3ccccc3)cc2)NC(=O)[C@H](C(C)C)NC(=O)[C@H](Cc2c[nH]c3ccccc23)NC(=O)[C@H](CC(=O)O)NC(=O)[C@H](Cc2ccc(OCC(=O)O)cc2)NC(=O)[C@H](Cc2ccncc2)NC(=O)CSC[C@@H](C(=O)NCC(=O)NCCOCCOCC(=O)N[C@@H](CCCN)C(=O)NCCCCCCCCCCC(=O)O)NC(=O)[C@H](CCCNC(N)=O)NC(=O)[C@H](C(C)C)NC(=O)[C@H](CC2CCCCC2)NC(=O)[C@H](CCN)NC1=O [Compound 3235] ({CH2CO}-[4Pal]Y(Carboxymethyl)DWV[Bip]V[Orn][dL][Dab][Cha]V[Cit]CG[AEEA][Orn][Aun]-OH; thioether N-14)
9 | 8.26 | CC(C)C[C@H]1NC(=O)[C@H](CCCN)NC(=O)[C@H](C(C)C)NC(=O)[C@H](Cc2ccc(-c3ccccc3)cc2)NC(=O)[C@H](C(C)C)NC(=O)[C@H](Cc2c[nH]c3ccccc23)NC(=O)[C@H](CC(=O)O)NC(=O)[C@H](Cc2ccc(OCC(=O)O)cc2)NC(=O)[C@H](Cc2ccncc2)NC(=O)CSC[C@@H](C(=O)NCC(=O)NCCOCCOCC(=O)N[C@@H](CCCN)C(=O)NCCCCCCCCCCC(=O)O)NC(=O)[C@H](CN)NC(=O)[C@H](C(C)C)NC(=O)[C@H](CC2CCCCC2)NC(=O)[C@H](CCN)NC1=O [Compound 3233] ({CH2CO}-[4Pal]Y(Carboxymethyl)DWV[Bip]V[Orn][dL][Dab][Cha]V[Dap]CG[AEEA][Orn][Aun]-OH; thioether N-14)
10 | 8.41 | CC(C)C[C@H]1NC(=O)[C@H](CCCN)NC(=O)[C@H](C(C)C)NC(=O)[C@H](Cc2ccc(-c3ccccc3)cc2)NC(=O)[C@H](C(C)C)NC(=O)[C@H](Cc2c[nH]c3ccccc23)NC(=O)[C@H](CC(=O)O)NC(=O)[C@H](Cc2ccc(OCC(=O)O)cc2)NC(=O)[C@H](Cc2ccncc2)NC(=O)CSC[C@@H](C(=O)NCC(=O)NCCOCCOCC(=O)N[C@@H](CCCN)C(=O)NCCCCCCCCCCC(=O)O)NC(=O)[C@H](CCN)NC(=O)[C@H](C(C)C)NC(=O)[C@H](CC2CCCCC2)NC(=O)[C@H](CCN)NC1=O [Compound 3236] ({CH2CO}-[4Pal]Y(Carboxymethyl)DWV[Bip]V[Orn][dL][Dab][Cha]V[Dab]CG[AEEA][Orn][Aun]-OH; thioether N-14)
